In ChEMBL document CHEMBL6074711, “Design, Synthesis, and Activity Evaluation of C-23-Modified 5-O-Mycaminosyltylonolide Derivatives” (ACS Med Chem Lett, 2024):
≈ marks a conversion by molar mass, not a printed value.

Key:
Type in all cases: functional
Staphylococcus aureus [1] = assay: Antibacterial activity against Staphylococcus aureus ATCC25923 incubated for 16 to 20 hrs by broth microdilution method; details: time 16-20 hrs
Escherichia coli [2] = assay: Antibacterial activity against Escherichia coli ATCC25922 incubated for 16 to 20 hrs by broth microdilution method; details: time 16-20 hrs
Enterococcus faecalis = assay: Antibacterial activity against Enterococcus faecalis ATCC29212 incubated for 16 to 20 hrs by broth microdilution method; details: time 16-20 hrs
[3] = test system: Stenotrophomonas maltophilia; assay: Antibacterial activity against Stenotrophomonas maltophilia ATCC17808 incubated for 16 to 20 hrs by broth microdilution method; details: time 16-20 hrs
Staphylococcus aureus [4] = assay: Antibacterial activity against Staphylococcus aureus ATCC25923 under 10^4 CFU/ml of bacterial inoculum culture by absorbance based assay
Staphylococcus aureus [5] = assay: Antibacterial activity against Staphylococcus aureus ATCC25923 under 10^5 CFU/ml of bacterial inoculum culture by absorbance based assay
Staphylococcus aureus [6] = assay: Antibacterial activity against Staphylococcus aureus ATCC25923 under 10^6 CFU/ml of bacterial inoculum culture by absorbance based assay
Staphylococcus aureus [7] = assay: Antibacterial activity against Staphylococcus aureus ATCC25923 under 10^7 CFU/ml of bacterial inoculum culture by absorbance based assay
Staphylococcus aureus [8] = assay: Antibacterial activity against drug-resistant Staphylococcus aureus clinical isolate M20 incubated for 16 to 20 hrs by broth microdilution method; details: time 16-20 hrs
Escherichia coli [9] = assay: Antibacterial activity against drug-resistant Escherichia coli clinical isolate 1322 incubated for 16 to 20 hrs by broth microdilution method; details: time 16-20 hrs
Escherichia coli [10] = assay: Antibacterial activity against drug-resistant Escherichia coli clinical isolate 1333 incubated for 16 to 20 hrs by broth microdilution method; details: time 16-20 hrs
Escherichia coli [11] = assay: Antibacterial activity against Escherichia coli ATCC25922 under 10^4 CFU/ml of bacterial inoculum culture by absorbance based assay
Escherichia coli [12] = assay: Antibacterial activity against Escherichia coli ATCC25922 under 10^5 CFU/ml of bacterial inoculum culture by absorbance based assay
Escherichia coli [13] = assay: Antibacterial activity against Escherichia coli ATCC25922 under 10^6 CFU/ml of bacterial inoculum culture by absorbance based assay
Escherichia coli [14] = assay: Antibacterial activity against Escherichia coli ATCC25922 under 10^7 CFU/ml of bacterial inoculum culture by absorbance based assay

| SMILES | MIC (Staphylococcus aureus [1]) | MIC (Escherichia coli [2]) | MIC (Enterococcus faecalis) | MIC [3] | further results |
| --- | --- | --- | --- | --- | --- |
| C[C@@H](O)[C@H]1C(=O)N2C(C(=O)O)=C(S[C@@H]3CN[C@H](C(=O)N(C)C)C3)[C@H](C)[C@H]12 [MEROPENEM] | 0.063 µg/mL (≈ 0.164 µM) | 0.125 µg/mL (≈ 0.326 µM) | 0.063 µg/mL (≈ 0.164 µM) | 0.125 µg/mL (≈ 0.326 µM) | MIC (Staphylococcus aureus [4]): 0.25 µg/mL (≈ 0.652 µM); MIC (Staphylococcus aureus [5]): 0.5 µg/mL (≈ 1.3 µM); MIC (Staphylococcus aureus [6]): 1 µg/mL (≈ 2.61 µM); MIC (Staphylococcus aureus [7]): 2 µg/mL (≈ 5.22 µM) |
| CC[C@H]1OC(=O)C[C@@H](O)[C@H](C)[C@@H](O[C@@H]2O[C@H](C)[C@@H](O)[C@H](N(C)C)[C@H]2O)[C@@H](CCNCc2cn(-c3cnc4ccccc4c3)nn2)C[C@@H](C)C(=O)/C=C/C(C)=C/[C@@H]1CNCc1ccc(Br)cc1 | 1 µg/mL (≈ 1.03 µM) | 2 µg/mL (≈ 2.05 µM) | 2 µg/mL (≈ 2.05 µM) | 2 µg/mL (≈ 2.05 µM) |  |
| CCc1ccc(NC[C@H]2/C=C(C)/C=C/C(=O)[C@H](C)C[C@H](CCN(C)Cc3cn(-c4cnc5ccccc5c4)nn3)[C@H](O[C@@H]3O[C@H](C)[C@@H](O)[C@H](N(C)C)[C@H]3O)[C@@H](C)[C@H](O)CC(=O)O[C@@H]2CC)cc1 | 2 µg/mL (≈ 2.16 µM) | 2 µg/mL (≈ 2.16 µM) | 2 µg/mL (≈ 2.16 µM) | 2 µg/mL (≈ 2.16 µM) |  |
| CC[C@H]1OC(=O)C[C@@H](O)[C@H](C)[C@@H](O[C@@H]2O[C@H](C)[C@@H](O)[C@H](N(C)C)[C@H]2O)[C@@H](CCN(C)Cc2cn(-c3cnc4ccccc4c3)nn2)C[C@@H](C)C(=O)/C=C/C(C)=C/[C@@H]1CNc1ccc(Br)cc1 | 2 µg/mL (≈ 2.05 µM) | 4 µg/mL (≈ 4.1 µM) | 4 µg/mL (≈ 4.1 µM) | 4 µg/mL (≈ 4.1 µM) |  |
| CC[C@H]1OC(=O)C[C@@H](O)[C@H](C)[C@@H](O[C@@H]2O[C@H](C)[C@@H](O)[C@H](N(C)C)[C@H]2O)[C@@H](CCNCc2cn(-c3cnc4ccccc4c3)nn2)C[C@@H](C)C(=O)/C=C/C(C)=C/[C@@H]1CNc1ccc(C)cc1 | 2 µg/mL (≈ 2.23 µM) | 2 µg/mL (≈ 2.23 µM) | 2 µg/mL (≈ 2.23 µM) | 8 µg/mL (≈ 8.93 µM) |  |
| CC[C@H]1OC(=O)C[C@@H](O)[C@H](C)[C@@H](O[C@@H]2O[C@H](C)[C@@H](O)[C@H](N(C)C)[C@H]2O)[C@@H](CCNCc2cn(-c3cnc4ccccc4c3)nn2)C[C@@H](C)C(=O)/C=C/C(C)=C/[C@@H]1CNCc1ccc(Cl)cc1 | 1 µg/mL (≈ 1.07 µM) | 2 µg/mL (≈ 2.15 µM) | 2 µg/mL (≈ 2.15 µM) | 1 µg/mL (≈ 1.07 µM) |  |
| CC[C@H]1OC(=O)C[C@@H](O)[C@H](C)[C@@H](O[C@@H]2O[C@H](C)[C@@H](O)[C@H](N(C)C)[C@H]2O)[C@@H](CCN(C)Cc2cn(-c3cnc4ccccc4c3)nn2)C[C@@H](C)C(=O)/C=C/C(C)=C/[C@@H]1CN(Cc1ccccc1)C(C)C | 8 µg/mL (≈ 8.4 µM) | 16 µg/mL (≈ 16.8 µM) | 16 µg/mL (≈ 16.8 µM) | 8 µg/mL (≈ 8.4 µM) |  |
| CC[C@H]1OC(=O)C[C@@H](O)[C@H](C)[C@@H](O[C@@H]2O[C@H](C)[C@@H](O)[C@H](N(C)C)[C@H]2O)[C@@H](CCN(C)Cc2cn(-c3cnc4ccccc4c3)nn2)C[C@@H](C)C(=O)/C=C/C(C)=C/[C@@H]1CNCc1cc(F)cc(F)c1 | 1 µg/mL (≈ 1.06 µM) | 1 µg/mL (≈ 1.06 µM) | 1 µg/mL (≈ 1.06 µM) | 1 µg/mL (≈ 1.06 µM) |  |
| CC[C@H]1OC(=O)C[C@@H](O)[C@H](C)[C@@H](O[C@@H]2O[C@H](C)[C@@H](O)[C@H](N(C)C)[C@H]2O)[C@@H](CCN(C)Cc2cn(-c3cnc4ccccc4c3)nn2)C[C@@H](C)C(=O)/C=C/C(C)=C/[C@@H]1CNCc1cccc(Br)c1 | 4 µg/mL (≈ 4.04 µM) | 8 µg/mL (≈ 8.09 µM) | 8 µg/mL (≈ 8.09 µM) | 8 µg/mL (≈ 8.09 µM) |  |
| CC[C@H]1OC(=O)C[C@@H](O)[C@H](C)[C@@H](O[C@@H]2O[C@H](C)[C@@H](O)[C@H](N(C)C)[C@H]2O)[C@@H](CCN(C)Cc2cn(-c3cnc4ccccc4c3)nn2)C[C@@H](C)C(=O)/C=C/C(C)=C/[C@@H]1CNCc1ccccc1 | 1 µg/mL (≈ 1.1 µM) | 2 µg/mL (≈ 2.2 µM) | 4 µg/mL (≈ 4.39 µM) | 2 µg/mL (≈ 2.2 µM) |  |
| CC[C@H]1OC(=O)C[C@@H](O)[C@H](C)[C@@H](O[C@@H]2O[C@H](C)[C@@H](O[C@H]3C[C@@](C)(O)[C@@H](O)[C@H](C)O3)[C@H](N(C)C)[C@H]2O)[C@@H](CC=O)C[C@@H](C)C(=O)/C=C/C(C)=C/[C@@H]1CO[C@@H]1O[C@H](C)[C@@H](O)[C@@H](OC)[C@H]1OC [TYLOSIN] | 0.5 µg/mL (≈ 0.546 µM) | > 32 µg/mL | 0.5 µg/mL (≈ 0.546 µM) | > 32 µg/mL | MIC (Staphylococcus aureus [8]): 0.5 µg/mL (≈ 0.546 µM); MIC (Escherichia coli [9]): > 32 µg/mL; MIC (Escherichia coli [10]): > 32 µg/mL; MIC (Escherichia coli [11]): 1 µg/mL (≈ 1.09 µM); MIC (Escherichia coli [12]): 1 µg/mL (≈ 1.09 µM); MIC (Escherichia coli [13]): 2 µg/mL (≈ 2.18 µM); MIC (Escherichia coli [14]): 2 µg/mL (≈ 2.18 µM); MIC (Staphylococcus aureus [4]): 1 µg/mL (≈ 1.09 µM); MIC (Staphylococcus aureus [5]): 2 µg/mL (≈ 2.18 µM); MIC (Staphylococcus aureus [6]): 4 µg/mL (≈ 4.37 µM); MIC (Staphylococcus aureus [7]): 4 µg/mL (≈ 4.37 µM) |
| CC[C@H]1OC(=O)C[C@@H](O)[C@H](C)[C@@H](O[C@@H]2O[C@H](C)[C@@H](O)[C@H](N(C)C)[C@H]2O)[C@@H](CCN(C)Cc2cn(-c3cnc4ccccc4c3)nn2)C[C@@H](C)C(=O)/C=C/C(C)=C/[C@@H]1CNCc1ccc(Br)cc1 | 4 µg/mL (≈ 4.04 µM) | 8 µg/mL (≈ 8.09 µM) | 8 µg/mL (≈ 8.09 µM) | 8 µg/mL (≈ 8.09 µM) |  |
| CC[C@H]1OC(=O)C[C@@H](O)[C@H](C)[C@@H](O[C@@H]2O[C@H](C)[C@@H](O)[C@H](N(C)C)[C@H]2O)[C@@H](CCN(C)Cc2cn(-c3cnc4ccccc4c3)nn2)C[C@@H](C)C(=O)/C=C/C(C)=C/[C@@H]1CNCc1ccc(F)cc1 | 2 µg/mL (≈ 2.15 µM) | 8 µg/mL (≈ 8.62 µM) | 8 µg/mL (≈ 8.62 µM) | 4 µg/mL (≈ 4.31 µM) |  |
| CC[C@H]1OC(=O)C[C@@H](O)[C@H](C)[C@@H](O[C@@H]2O[C@H](C)[C@@H](O)[C@H](N(C)C)[C@H]2O)[C@@H](CCNCc2cn(-c3cnc4ccccc4c3)nn2)C[C@@H](C)C(=O)/C=C/C(C)=C/[C@@H]1CN(CC)Cc1ccccc1 | 2 µg/mL (≈ 2.16 µM) | 1 µg/mL (≈ 1.08 µM) | 2 µg/mL (≈ 2.16 µM) | 1 µg/mL (≈ 1.08 µM) |  |
| CC[C@H]1OC(=O)C[C@@H](O)[C@H](C)[C@@H](O[C@@H]2O[C@H](C)[C@@H](O)[C@H](N(C)C)[C@H]2O)[C@@H](CCNCc2cn(-c3cnc4ccccc4c3)nn2)C[C@@H](C)C(=O)/C=C/C(C)=C/[C@@H]1CNc1ccc(Br)cc1 | 2 µg/mL (≈ 2.08 µM) | 1 µg/mL (≈ 1.04 µM) | 2 µg/mL (≈ 2.08 µM) | 1 µg/mL (≈ 1.04 µM) |  |
| CC[C@H]1OC(=O)C[C@@H](O)[C@H](C)[C@@H](O[C@@H]2O[C@H](C)[C@@H](O)[C@H](N(C)C)[C@H]2O)[C@@H](CC=O)C[C@@H](C)C(=O)/C=C/C(C)=C/[C@@H]1CO | 0.5 µg/mL (≈ 0.836 µM) | > 32 µg/mL | 0.5 µg/mL (≈ 0.836 µM) | > 32 µg/mL | MIC (Staphylococcus aureus [8]): 1 µg/mL (≈ 1.67 µM); MIC (Escherichia coli [9]): > 32 µg/mL; MIC (Escherichia coli [10]): > 32 µg/mL |
| CC[C@H]1OC(=O)C[C@@H](O)[C@H](C)[C@@H](O[C@@H]2O[C@H](C)[C@@H](O)[C@H](N(C)C)[C@H]2O)[C@@H](CCN2C[C@H](C)C[C@H](C)C2)C[C@@H](C)C(=O)/C=C/C(C)=C/[C@@H]1CO[C@@H]1O[C@H](C)[C@@H](O)[C@@H](OC)[C@H]1OC [TILMICOSIN] | 1 µg/mL (≈ 1.15 µM) | > 32 µg/mL | 1 µg/mL (≈ 1.15 µM) | > 32 µg/mL |  |
| CC[C@H]1OC(=O)C[C@@H](O)[C@H](C)[C@@H](O[C@@H]2O[C@H](C)[C@@H](O)[C@H](N(C)C)[C@H]2O)[C@@H](CCNCc2cn(-c3cnc4ccccc4c3)nn2)C[C@@H](C)C(=O)/C=C/C(C)=C/[C@@H]1CN(C)Cc1ccccc1 | 0.5 µg/mL (≈ 0.549 µM) | 2 µg/mL (≈ 2.2 µM) | 2 µg/mL (≈ 2.2 µM) | 2 µg/mL (≈ 2.2 µM) |  |
| CC[C@H]1OC(=O)C[C@@H](O)[C@H](C)[C@@H](O[C@@H]2O[C@H](C)[C@@H](O)[C@H](N(C)C)[C@H]2O)[C@@H](CCN(C)Cc2cn(-c3cnc4ccccc4c3)nn2)C[C@@H](C)C(=O)/C=C/C(C)=C/[C@@H]1CN(CC)Cc1ccccc1 | 2 µg/mL (≈ 2.13 µM) | 8 µg/mL (≈ 8.53 µM) | 4 µg/mL (≈ 4.26 µM) | 2 µg/mL (≈ 2.13 µM) |  |
